# Source: patent US20070072883A1, “Fungicidal mixtures” (BASF Aktiengesellschaft, priority 2003, published 2007)
# Experiments:
# Cochliobolus miyabeanus = assay: Activity against brown spot of rice caused by Cochliobolus miyabeanus, protective application; assay type: in vivo; conditions: rice seedlings "Tai-Nong 67", six days after inoculation
# Experimental: (§1) The active compounds, separately or jointly, were prepared as a stock solution comprising 0.25% by weight of active compound in acetone or DMSO. 1% by weight of the emulsifier Uniperol® EL (wetting agent having emulsifying and dispersant action based on ethoxylated alkylphenols) was added to this solution, and the mixture was diluted with water to the desired concentration.
# Use Example 1—Activity Against Brown Spot of Rice Caused by Cochliobolus miyabeanus, Protective Application Leaves of potted rice seedlings of the cultivar “Tai-Nong 67” were sprayed to runoff point with an aqueous suspension of the concentration of active compound stated below. The next day, the plants were inoculated with an aqueous spore suspension of Cochliobolus miyabeanus. The test plants were then placed in climatized chambers at 22-24° C. and 95-99% relative atmospheric humidity for six days. The extent of the development of the infection on the leaves was then determined visually.
# Evaluation was carried out by determining the percentage of infected leaf area. These percentages were converted into efficacies.
# The efficacy (E) is calculated as follows using Abbot's formula: E=(1−α/β)·100 α corresponds to the fungicidal infection of the treated plants in % and β corresponds to the fungicidal infection of the untreated (control) plants in % An efficacy of 0 means that the infection level of the treated plants corresponds to that of the untreated control plants; an efficacy of 100 means that the treated plants are not infected.
# The expected efficacies of mixtures of active compounds are determined using Colby's formula (R. S. Colby, Weeds, 15, 20-22, 1967) and compared with the observed efficacies.
# Colby's formula: E=x+y−x·y/100 • E expected efficacy, expressed in % of the untreated control, when using the mixture of the active compounds A and B at the concentrations a and b • x efficacy, expressed in % of the untreated control, when using the active compound A at the concentration a y efficacy, expressed in % of the untreated control, when using the active compound B at the concentration b
# Corticium sasakii = assay: Activity against sheath blight on rice caused by Corticium sasakii; assay type: in vivo; conditions: rice plants "Tai-Nong 67", after 11 days
# Experimental: as §1
# Use Example 2—Activity Against Sheath Blight on Rice Caused by Corticium sasakii
# Pots with rice plants of the cultivar “Tai-Nong 67”, were sprayed to runoff point with an aqueous suspension having the concentration of active compounds stated below. The next day, oat grains infected with Corticium sasakii were placed into the pots (in each case 5 grains per pot). The plants were then placed in a chamber at 26° C. and maximum atmospheric humidity. After 11 days, the sheath blight on the untreated but infected control plants had developed to such an extent that the infection could be determined visually in %.
# Evaluation was carried out analogously to Example 1.
SMILES,Efficacy in % of the untreated control (Cochliobolus miyabeanus; 4 ppm in the spray liquor) [%],Efficacy in % of the untreated control (Corticium sasakii; 4 ppm in the spray liquor) [%],Efficacy in % of the untreated control (Cochliobolus miyabeanus; 1 ppm in the spray liquor) [%],Efficacy in % of the untreated control (Corticium sasakii; 1 ppm in the spray liquor) [%]
"CC1CCN(c2c(-c3c(F)cc(F)cc3F)c(Cl)nc3ncnn23)CC1 [I, 5-chloro-7-(4-methylpiperidin-1-yl)-6-(2,4,6-trifluorophenyl)-[1,2,4]triazolo[1,5-a]pyrimidine]",33,37,,
"N#Cc1c[nH]cc1-c1cccc2c1OC(F)(F)O2 [II (fludioxonil), 4-(2,2-difluorobenzo[1,3]dioxol-4-yl)-1H-pyrrole-3-carbonitrile]",33,6,0,0
